Data: patent US9914731B2, “Pyrazolo[1,5-a]pyridine derivatives and methods of their use” (Ignyta, Inc., priority 2013, dated 2018)

These molecules were tested against recombinant human baculovirus-expressed cMET (Homo sapiens (Human), UniProt P08581) (assay: c-MET kinase assay (HTRF KinEASE)). Conditions: average of two or more determinations; read-out: c-MET IC50.
Format: biochemical

| IC50 [µM] | Structure (SMILES) |
| --- | --- |
| < 0.01 | Cn1ccnc1-c1cc(Oc2ccc(NC(=O)c3cccn(-c4ccc(F)cc4)c3=O)cc2F)c2ccnn2c1 [Example 90, 1-(4-Fluoro-phenyl)-2-oxo-1,2-dihydro-pyridine-3-carboxylic acid{3-fluoro-4-[6-(1-methyl-1H-imidazol-2-yl)-pyrazolo[1,5-a]pyridin-4-yloxy]-phenyl}-amide] |
| < 0.01 | Cn1cnc(-c2cc(Oc3ccc(NC(=O)c4cn(CCO)c(=O)n(-c5ccc(F)cc5)c4=O)cc3F)c3ccnn3c2)c1 [Example 97, 3-(4-Fluoro-phenyl)-1-(2-hydroxy-ethyl)-2,4-dioxo-1,2,3,4-tetrahydro-pyrimidine-5-carboxylic acid{3-fluoro-4-[6-(1-methyl-1H-imidazol-4-yl)-pyrazolo[1,5-a]pyridin-4-yloxy]-phenyl}-amide] |
| < 0.01 | Cc1ccc(C(=O)Nc2ccc(Oc3cc(-c4ncco4)cn4nccc34)c(F)c2)c(=O)n1-c1ccc(F)cc1 [Example 98, 1-(4-Fluoro-phenyl)-6-methyl-2-oxo-1,2-dihydro-pyridine-3-carboxylic acid [3-fluoro-4-(6-oxazol-2-yl-pyrazolo[1,5-a]pyridin-4-yloxy)-phenyl]-amide] |
| < 0.01 | CCn1cc(C(=O)Nc2ccc(Oc3cc(-c4cncn4C)cn4nccc34)c(F)c2)c(=O)n(-c2ccc(F)cc2)c1=O [Example 100, 1-Ethyl-3-(4-fluoro-phenyl)-2,4-dioxo-1,2,3,4-tetrahydro-pyrimidine-5-carboxylic acid{3-fluoro-4-[6-(3-methyl-3H-imidazol-4-yl)-pyrazolo[1,5-a]pyridin-4-yloxy]-phenyl}-amide] |
| < 0.01 | O=C(Nc1ccc(Oc2cc(-c3cncs3)cn3nccc23)c(F)c1)c1cccn(-c2ccc(F)cc2)c1=O [Example 105, 1-(4-Fluoro-phenyl)-2-oxo-1,2-dihydro-pyridine-3-carboxylic acid[3-fluoro-4-(6-thiazol-5-yl-pyrazolo[1,5-a]pyridin-4-yloxy)-phenyl]-amide] |
| < 0.01 | CC(C)n1cc(C(=O)Nc2ccc(Oc3cc(-c4cscn4)cn4nccc34)c(F)c2)c(=O)n(-c2ccc(F)cc2)c1=O [Example 106, 3-(4-Fluoro-phenyl)-1-isopropyl-2,4-dioxo-1,2,3,4-tetrahydro-pyrimidine-5-carboxylic acid[3-fluoro-4-(6-thiazol-4-yl-pyrazolo[1,5-a]pyridin-4-yloxy)-phenyl]-amide] |
| < 0.01 | Cn1cnc(-c2cc(Oc3ccc(NC(=O)C4(C(=O)Nc5ccc(F)cc5)CC4)cc3F)c3ccnn3c2)c1 [Example 108, Cyclopropane-1,1-dicarboxylic acid{3-fluoro-4-[6-(1-methyl-1H-imidazol-4-yl)-pyrazolo[1,5-a]pyridin-4-yloxy]-phenyl}-amide(4-fluoro-phenyl)-amide] |
| < 0.01 | CCn1cc(C(=O)Nc2ccc(Oc3cc(-c4cn(C)cn4)cn4nccc34)c(C)c2)c(=O)n(-c2ccc(F)cc2)c1=O [Example 109, 1-Ethyl-3-(4-fluoro-phenyl)-2,4-dioxo-1,2,3,4-tetrahydro-pyrimidine-5-carboxylic acid{3-methyl-4-[6-(1-methyl-1H-imidazol-4-yl)-pyrazolo[1,5-a]pyridin-4-yloxy]-phenyl}-amide] |
| < 0.01 | CCn1cc(C(=O)Nc2ccc(Oc3cc(-c4cn(C)cn4)cn4nccc34)nc2)c(=O)n(-c2ccc(F)cc2)c1=O [Example 115, 1-Ethyl-3-(4-fluoro-phenyl)-2,4-dioxo-1,2,3,4-tetrahydro-pyrimidine-5-carboxylic acid{6-[6-(1-methyl-1H-imidazol-4-yl)-pyrazolo[1,5-a]pyridin-4-yloxy]-pyridin-3-yl}-amide] |
| < 0.01 | CC(C)n1cc(C(=O)Nc2ccc(Oc3cc(-c4cn(C)cn4)cn4nccc34)nc2)c(=O)n(-c2ccc(F)cc2)c1=O [Example 116, 3-(4-Fluoro-phenyl)-1-isopropyl-2,4-dioxo-1,2,3,4-tetrahydro-pyrimidine-5-carboxylic acid{6-[6-(1-methyl-1H-imidazol-4-yl)-pyrazolo[1,5-a]pyridin-4-yloxy]-pyridin-3-yl}-amide] |
| < 0.01 | CCOc1ccn(-c2ccc(F)cc2)c(=O)c1C(=O)Nc1ccc(Oc2cc(-c3cn(C)cn3)cn3nccc23)cc1 [Example 118, 4-Ethoxy-1-(4-fluoro-phenyl)-2-oxo-1,2-dihydro-pyridine-3-carboxylic acid {4-[6-(1-methyl-1H-imidazol-4-yl)-pyrazolo[1,5-a]pyridin-4-yloxy]-phenyl}-amide] |
| 0.01 to 0.1 | CCn1cc(C(=O)Nc2ccc(Oc3cc(-c4cn(C)cn4)cn4nccc34)c(OCc3ccccc3)c2)c(=O)n(-c2ccc(F)cc2)c1=O [Example 119] |
| 0.01 to 0.1 | CCn1cc(C(=O)Nc2ccc(Oc3cc(-c4cn(C)cn4)cn4nccc34)c(O)c2)c(=O)n(-c2ccc(F)cc2)c1=O [Example 120, 1-Ethyl-3-(4-fluoro-phenyl)-2,4-dioxo-1,2,3,4-tetrahydro-pyrimidine-5-carboxylic acid{3-hydroxy-4-[6-(1-methyl-1H-imidazol-4-yl)-pyrazolo[1,5-a]pyridin-4-yloxy]-phenyl}-amide] |
| 0.01 to 0.1 | CC(C)n1cc(C(=O)Nc2ccc(Oc3cc(-c4cn(C)cn4)cn4nccc34)c(OCc3ccccc3)c2)c(=O)n(-c2ccc(F)cc2)c1=O [Example 121, 3-(4-Fluoro-phenyl)-1-isopropyl-2,4-dioxo-1,2,3,4-tetrahydro-pyrimidine-5-carboxylic acid {3-benzyloxy-4-[6-(1-methyl-1H-imidazol-4-yl)-pyrazolo[1,5-a]pyridine-4-yloxy]-phenyl}-amide] |
| 0.01 to 0.1 | CC(C)n1cc(C(=O)Nc2ccc(Oc3cc(-c4cn(C)cn4)cn4nccc34)c(O)c2)c(=O)n(-c2ccc(F)cc2)c1=O [Example 122, 3-(4-Fluoro-phenyl)-1-isopropyl-2,4-dioxo-1,2,3,4-tetrahydro-pyrimidine-5-carboxylic acid{3-hydroxy-4-[6-(1-methyl-1H-imidazol-4-yl)-pyrazolo[1,5-a]pyridin-4-yloxy]-phenyl}-amide] |
| < 0.01 | CCCCCn1cc(C(=O)Nc2ccc(Oc3cc(-c4cn(C)cn4)cn4nccc34)c(F)c2)c(=O)n(-c2ccc(F)cc2)c1=O [Example 123, 3-(4-Fluoro-phenyl)-2,4-dioxo-1-pentyl-1,2,3,4-tetrahydro-pyrimidine-5-carboxylic acid{3-fluoro-4-[6-(1-methyl-1H-imidazol-4-yl)-pyrazolo[1,5-a]pyridin-4-yloxy]-phenyl}-amide] |
| < 0.01 | CCn1cc(C(=O)Nc2ccc(Oc3cc(-c4cn(C)cn4)cn4nccc34)c(C(F)(F)F)c2)c(=O)n(-c2ccc(F)cc2)c1=O [Example 125, 1-Ethyl-3-(4-fluoro-phenyl)-2,4-dioxo-1,2,3,4-tetrahydro-pyrimidine-5-carboxylic acid {4-[6-(1-methyl-1H-imidazol-4-yl)-pyrazolo[1,5-a]pyridin-4-yloxy]-3-trifluoromethyl-phenyl}-amide] |
| 0.01 to 0.1 | CC(C)n1cc(C(=O)Nc2ccc(Oc3cc(-c4cn(C)cn4)cn4nccc34)c(C(F)(F)F)c2)c(=O)n(-c2ccc(F)cc2)c1=O [Example 126, 3-(4-Fluoro-phenyl)-1-isopropyl-2,4-dioxo-1,2,3,4-tetrahydro-pyrimidine-5-carboxylic acid{4-[6-(1-methyl-1H-imidazol-4-yl)-pyrazolo[1,5-a]pyridin-4-yloxy]-3-trifluoromethyl-phenyl}-amide] |
| < 0.01 | CCn1nc(C(=O)Nc2ccc(Oc3cc(-c4cn(C)cn4)cn4nccc34)cn2)c(=O)n(-c2ccc(F)cc2)c1=O [Example 130, 2-Ethyl-4-(4-fluoro-phenyl)-3,5-dioxo-2,3,4,5-tetrahydro-1,2,4-triazine-6-carboxylic acid{5-[6-(1-methyl-1H-imidazol-4-yl)-pyrazolo[1,5-a]pyridin-4-yloxy]-pyridin-2-yl}-amide] |
| < 0.01 | CC(C)n1nc(C(=O)Nc2ccc(Oc3cc(-c4cn(C)cn4)cn4nccc34)cn2)c(=O)n(-c2ccc(F)cc2)c1=O [Example 131, 4-(4-Fluoro-phenyl)-2-isopropyl-3,5-dioxo-2,3,4,5-tetrahydro-1,2,4-triazine-6-carboxylic acid{5-[6-(1-methyl-1H-imidazol-4-yl)-pyrazolo[1,5-a]pyridin-4-yloxy]-pyridin-2-yl}-amide] |
| 0.01 to 0.1 | CCn1cc(C(=O)Nc2ccc(Oc3cc(-c4ncccn4)cn4nccc34)c(F)c2)c(=O)n(-c2ccc(F)cc2)c1=O [Example 132, 1-Ethyl-3-(4-fluoro-phenyl)-2,4-dioxo-1,2,3,4-tetrahydro-pyrimidine-5-carboxylic acid [3-fluoro-4-(6-pyrimidin-2-yl-pyrazolo[1,5-a]pyridin-4-yloxy)-phenyl]-amide] |
| 0.01 to 0.1 | CC(C)n1cc(C(=O)Nc2ccc(Oc3cc(-c4ncccn4)cn4nccc34)c(F)c2)c(=O)n(-c2ccc(F)cc2)c1=O [Example 133, 3-(4-Fluoro-phenyl)-1-isopropyl-2,4-dioxo-1,2,3,4-tetrahydro-pyrimidine-5-carboxylic acid[3-fluoro-4-(6-pyrimidin-2-yl-pyrazolo[1,5-a]pyridin-4-yloxy)-phenyl]-amide] |
| 0.01 to 0.1 | CCn1cc(C(=O)Nc2ccc(Oc3cc(-c4cnccn4)cn4nccc34)c(F)c2)c(=O)n(-c2ccc(F)cc2)c1=O [Example 134, 1-Ethyl-3-(4-fluoro-phenyl)-2,4-dioxo-1,2,3,4-tetrahydro-pyrimidine-5-carboxylic acid[3-fluoro-4-(6-pyrazin-2-yl-pyrazolo[1,5-a]pyridin-4-yloxy)-phenyl]-amide] |

| Structure (SMILES) | IC50 [µM] |
| --- | --- |
| CCOc1ccn(-c2ccc(F)cc2)c(=O)c1C(=O)Nc1ccc(Oc2cc(-c3cn(C)cn3)cn3nccc23)c(F)c1 [Example 112, 4-Ethoxy-1-(4-fluoro-phenyl)-2-oxo-1,2-dihydro-pyridine-3-carboxylic acid {3-fluoro-4-[6-(1-methyl-1H-imidazol-4-yl)-pyrazolo[1,5-a]pyridin-4-yloxy]-phenyl}-amide] | < 0.01 |

Same assay, conditions: read-out: c-MET IC50

| Structure (SMILES) | IC50 [µM] |
| --- | --- |
| CC(C)n1cc(C(=O)Nc2ccc(Oc3cc(-c4ncco4)cn4nccc34)c(F)c2)c(=O)n(-c2ccc(F)cc2)c1=O [Example 99, 3-(4-Fluoro-phenyl)-1-isopropyl-2,4-dioxo-1,2,3,4-tetrahydro-pyrimidine-5-carboxylic acid[3-fluoro-4-(6-oxazol-2-yl-pyrazolo[1,5-a]pyridin-4-yloxy)-phenyl]-amide] | < 0.01 |
